# Data reported in patent publication EP1171107B1, “USE OF A PHARMACEUTICAL COMPOSITION IN THE MANUFACTURE OF A MEDICAMENT FOR THE TREATMENT OF PATHOLOGICAL CONDITIONS OF THE EYE CAUSED BY BACTERIA, VIRUSES, FUNGI, YEASTS AND PROTOZOA” (Dr. GERHARD MANN chem.-pharm. Fabrik GmbH, priority 1999, dated 2000).
# Counter-ions that a name gives are not always drawn.
# Experiments:
# Assay type in all cases: cell-based
# [1] = system: P.aeruginosa; assay: Qualitative examination: enrichment of the inoculated test preparation in broth
# Description: (§1) Escherichia (E.coli) Staphylococcus (S.aureus) Streptococcus (Sc.) Pneumoniae Pseudomonas (P.aeruginosa) Staphylococcus (S. epidermidis) Haemophilus (H. influenzae)
# (§2) Die verschiedenen Testkeime wurde jeweils aus einem Lyophilisat in NaCl-Peptonpuffer homogenisiert und auf Caseinpepton-Sojymehlpepton. (Caso-) Agar (Fa. bioMérieux; Art. Nr. 43019) bez. Kochblut-Agar (Fa. bioMérieux; Art. Nr. 43109) subkultiviert. Die Teststämme wurden vor Versuchsbeginn durch Erstellen eines biochemischen Profils mittels ATB/Vitek-System (Fa. bioMérieux, Nürtingen) auf Reinheit und Identität überprüft.
# (§3) Die verschiedenen Testsubstanzen a. bis j. wurden jeweils zu 5 ml in sterile Zentrifugenröhrchen abgefüllt und mit ca. 10^5 KBE^*/ml (* = koloniebildende Einheiten) der oben genannten Testkeime kontaminiert. Pro Substanz wurde für jeden Testkeim und jede zu prüfende Testzeit ein separater Ansatz angeimpft, d.h.10 Testsubstanzen zu jeweils 7 Testzeiten und 6 Testkeime (= insgesamt 502 Testansätze). Nach 2, 6, 8, 24, 32, 48 und 72 Stunden wurde dann der jeweilige Testansatz 10 Minuten bei 3000 rpm abzentrifugiert. Der Überstand wurde dekantiert und das Pellet in 5 ml NaCl Peptonpuffer aufgenommen und resuspendiert. Die Suspension wurde erneut 10 Minuten bei 3000 rpm abzentrifugiert und 5 ml NaCl-Peptonpuffer aufgenommen und mittels Vortex homogenisiert.
# (§4) Jeweils 2 ml der Testansätze wurden in 20 ml Caso-Bouillon oder für H. influenzae, in Fildes-Medium der Firma Becton Dickinson, ARt. Nr. 0349-739, angereichert und ebenfalls maximal 4 Tage bei 33± 2°C bebrütet. Ein negatives Ergebnis der Anreicherung belegt die Elimination der inokulierten Keime.
# [2] = system: H.influenzae; assay: as above
# Description: as §1, §2, §3, §4
# [3] = system: Sc. pneumoniae; assay: as above
# Description: as §1, §2
# as §3, with “Nach 2, 6, 8, 24, 32, 48 und 72 Stunden wurde dann der jeweilige Testansatz 10 Minuten bei 3000 rpm abzentrifugiert.” left out
# as §4
# [4] = system: S.epidermidis; assay: as above
# Description: as §1, §2
# as §3, with “Nach 2, 6, 8, 24, 32, 48 und 72 Stunden wurde dann der jeweilige Testansatz 10 Minuten bei 3000 rpm abzentrifugiert.” left out
# as §4
# [5] = system: S.aureus; assay: as above
# Description: as §1, §2
# as §3, with “Nach 2, 6, 8, 24, 32, 48 und 72 Stunden wurde dann der jeweilige Testansatz 10 Minuten bei 3000 rpm abzentrifugiert.” left out
# as §4
# [6] = system: E.coli; assay: as above
# Description: as §1, §2
# as §3, with “Nach 2, 6, 8, 24, 32, 48 und 72 Stunden wurde dann der jeweilige Testansatz 10 Minuten bei 3000 rpm abzentrifugiert.” left out
# as §4
# [7] = system: P.aeruginosa; assay: Quantitative germ count (re-isolation, surface method) after inoculating the test preparation; details: Ausgangskeimzahl 2,7 x 10^5 KBE/ml
# Description: as §1, §2
# (§5) Die Ausgangskeimzahl wurde im Oberflächenverfahren mit Hilfe eines Spiralplaters (Fa. Meintrup, Lähden) ermittelt und ist im einzelnen den Tabellen 1-12 zu entnehmen.
# as §3
# (§6) Die anschließende Keimzahlbestimmung erfolgte im Oberflächenverfahren durch Ausspiralisieren eines […] Aliquots auf Caso-Agar bzw. für H. influenzae auf Kochblut-Agar. Die Platten wurden bei 33±2°C für max. 4 Tage bebrütet. Die Nachweisgrenze des Verfahrens liegt bei 100 KBE/ml.
# [8] = system: S.epidermidis; assay: as above; details: Ausgangskeimzahl 2,1 x 10^5 KBE/ml
# Description: as §1, §2, §5, §3, §6
# [9] = system: Sc. pneumoniae; assay: as above; details: Ausgangskeimzahl 3,7 x 10^5 KBE/ml
# Description: as §1, §2, §5
# as §3, with “Nach 2, 6, 8, 24, 32, 48 und 72 Stunden wurde dann der jeweilige Testansatz 10 Minuten bei 3000 rpm abzentrifugiert.” left out
# as §6
# [10] = system: H.influenzae; assay: as above; details: Ausgangskeimzahl 2,8 x 10^5 KBE/ml
# Description: as §1, §2, §5
# as §3, with “Nach 2, 6, 8, 24, 32, 48 und 72 Stunden wurde dann der jeweilige Testansatz 10 Minuten bei 3000 rpm abzentrifugiert.” left out
# as §6
# [11] = system: E.coli; assay: as above; details: Ausgangskeimzahl 2,7 x 10^5 KBE/ml
# Description: as §1, §2, §5
# as §3, with “Nach 2, 6, 8, 24, 32, 48 und 72 Stunden wurde dann der jeweilige Testansatz 10 Minuten bei 3000 rpm abzentrifugiert.” left out
# as §6
smiles,measurement,setting,value
"O=C(O)c1cn(C2CC2)c2cc(N3CCNCC3)c(F)cc2c1=O [Ciprofloxacin HCl 0,35 Gew.-%, Ciprofloxacin HCl, reference compound]",Ergebnis der Reisolierung qualitiativ (+/-) nach Anreicherung,[1]; 2 h after inoculation,-
same,Ergebnis der Reisolierung qualitiativ (+/-) nach Anreicherung,[1]; 4 h after inoculation,-
same,Ergebnis der Reisolierung qualitiativ (+/-) nach Anreicherung,[1]; 6 h after inoculation,-
same,Ergebnis der Reisolierung qualitiativ (+/-) nach Anreicherung,[1]; 8 h after inoculation,- -
same,Ergebnis der Reisolierung qualitiativ (+/-) nach Anreicherung,[1]; 24 h after inoculation,-
same,Ergebnis der Reisolierung qualitiativ (+/-) nach Anreicherung,[1]; 32 h after inoculation,-
same,Ergebnis der Reisolierung qualitiativ (+/-) nach Anreicherung,[1]; 48 h after inoculation,-
same,Ergebnis der Reisolierung qualitiativ (+/-) nach Anreicherung,[1]; 72 h after inoculation,-
same,Ergebnis der Reisolierung qualitiativ (+/-) nach Anreicherung,[2]; 2 h after inoculation,-
same,Ergebnis der Reisolierung qualitiativ (+/-) nach Anreicherung,[2]; 4 h after inoculation,-
same,Ergebnis der Reisolierung qualitiativ (+/-) nach Anreicherung,[2]; 6 h after inoculation,-
same,Ergebnis der Reisolierung qualitiativ (+/-) nach Anreicherung,[2]; 8 h after inoculation,-
same,Ergebnis der Reisolierung qualitiativ (+/-) nach Anreicherung,[2]; 24 h after inoculation,-
same,Ergebnis der Reisolierung qualitiativ (+/-) nach Anreicherung,[2]; 32 h after inoculation,-
same,Ergebnis der Reisolierung qualitiativ (+/-) nach Anreicherung,[2]; 48 h after inoculation,-
same,Ergebnis der Reisolierung qualitiativ (+/-) nach Anreicherung,[2]; 72 h after inoculation,-
same,Ergebnis der Reisolierung qualitiativ (+/-) nach Anreicherung,[3]; 2 h after inoculation,-
same,Ergebnis der Reisolierung qualitiativ (+/-) nach Anreicherung,[3]; 4 h after inoculation,-
same,Ergebnis der Reisolierung qualitiativ (+/-) nach Anreicherung,[3]; 6 h after inoculation,-
same,Ergebnis der Reisolierung qualitiativ (+/-) nach Anreicherung,[3]; 8 h after inoculation,-
same,Ergebnis der Reisolierung qualitiativ (+/-) nach Anreicherung,[3]; 24 h after inoculation,-
same,Ergebnis der Reisolierung qualitiativ (+/-) nach Anreicherung,[3]; 32 h after inoculation,-
same,Ergebnis der Reisolierung qualitiativ (+/-) nach Anreicherung,[3]; 48 h after inoculation,-
same,Ergebnis der Reisolierung qualitiativ (+/-) nach Anreicherung,[3]; 72 h after inoculation,-
same,Ergebnis der Reisolierung qualitiativ (+/-) nach Anreicherung,[4]; 2 h after inoculation,+
same,Ergebnis der Reisolierung qualitiativ (+/-) nach Anreicherung,[4]; 4 h after inoculation,+
same,Ergebnis der Reisolierung qualitiativ (+/-) nach Anreicherung,[4]; 6 h after inoculation,+
same,Ergebnis der Reisolierung qualitiativ (+/-) nach Anreicherung,[4]; 8 h after inoculation,-
same,Ergebnis der Reisolierung qualitiativ (+/-) nach Anreicherung,[4]; 24 h after inoculation,-
same,Ergebnis der Reisolierung qualitiativ (+/-) nach Anreicherung,[4]; 32 h after inoculation,-
same,Ergebnis der Reisolierung qualitiativ (+/-) nach Anreicherung,[4]; 48 h after inoculation,-
same,Ergebnis der Reisolierung qualitiativ (+/-) nach Anreicherung,[4]; 72 h after inoculation,-
same,Ergebnis der Reisolierung qualitiativ (+/-) nach Anreicherung,[5]; 2 h after inoculation,+
same,Ergebnis der Reisolierung qualitiativ (+/-) nach Anreicherung,[5]; 4 h after inoculation,+
same,Ergebnis der Reisolierung qualitiativ (+/-) nach Anreicherung,[5]; 6 h after inoculation,+
same,Ergebnis der Reisolierung qualitiativ (+/-) nach Anreicherung,[5]; 8 h after inoculation,+
same,Ergebnis der Reisolierung qualitiativ (+/-) nach Anreicherung,[5]; 24 h after inoculation,-
same,Ergebnis der Reisolierung qualitiativ (+/-) nach Anreicherung,[5]; 32 h after inoculation,-
same,Ergebnis der Reisolierung qualitiativ (+/-) nach Anreicherung,[5]; 48 h after inoculation,-
same,Ergebnis der Reisolierung qualitiativ (+/-) nach Anreicherung,[5]; 72 h after inoculation,-
same,Ergebnis der Reisolierung qualitiativ (+/-) nach Anreicherung,[6]; 2 h after inoculation,-
same,Ergebnis der Reisolierung qualitiativ (+/-) nach Anreicherung,[6]; 4 h after inoculation,-
same,Ergebnis der Reisolierung qualitiativ (+/-) nach Anreicherung,[6]; 6 h after inoculation,-
same,Ergebnis der Reisolierung qualitiativ (+/-) nach Anreicherung,[6]; 8 h after inoculation,-
same,Ergebnis der Reisolierung qualitiativ (+/-) nach Anreicherung,[6]; 24 h after inoculation,-
same,Ergebnis der Reisolierung qualitiativ (+/-) nach Anreicherung,[6]; 32 h after inoculation,-
same,Ergebnis der Reisolierung qualitiativ (+/-) nach Anreicherung,[6]; 48 h after inoculation,-
same,Ergebnis der Reisolierung qualitiativ (+/-) nach Anreicherung,[6]; 72 h after inoculation,-
same,Ergebnis der Reisolierung (in KBE/ml),[7]; 2 h after inoculation,<100 KBE/ml
same,Ergebnis der Reisolierung (in KBE/ml),[7]; 4 h after inoculation,<100 KBE/ml
same,Ergebnis der Reisolierung (in KBE/ml),[7]; 6 h after inoculation,<100 KBE/ml
same,Ergebnis der Reisolierung (in KBE/ml),[7]; 8 h after inoculation,<100 KBE/ml
same,Ergebnis der Reisolierung (in KBE/ml),[7]; 24 h after inoculation,<100 KBE/ml
same,Ergebnis der Reisolierung (in KBE/ml),[7]; 32 h after inoculation,<100 KBE/ml
same,Ergebnis der Reisolierung (in KBE/ml),[7]; 48 h after inoculation,<100 KBE/ml
same,Ergebnis der Reisolierung (in KBE/ml),[7]; 72 h after inoculation,<100 KBE/ml
same,Ergebnis der Reisolierung (in KBE/ml),[8]; 2 h after inoculation,<100 KBE/ml
same,Ergebnis der Reisolierung (in KBE/ml),[8]; 4 h after inoculation,<100 KBE/ml
same,Ergebnis der Reisolierung (in KBE/ml),[8]; 6 h after inoculation,<100 KBE/ml
same,Ergebnis der Reisolierung (in KBE/ml),[8]; 8 h after inoculation,<100 KBE/ml
same,Ergebnis der Reisolierung (in KBE/ml),[8]; 24 h after inoculation,<100 KBE/ml
same,Ergebnis der Reisolierung (in KBE/ml),[8]; 32 h after inoculation,<100 KBE/ml
same,Ergebnis der Reisolierung (in KBE/ml),[8]; 48 h after inoculation,<100 KBE/ml
same,Ergebnis der Reisolierung (in KBE/ml),[8]; 72 h after inoculation,<100 KBE/ml
same,Ergebnis der Reisolierung (in KBE/ml),[9]; 2 h after inoculation,<100 KBE/ml
same,Ergebnis der Reisolierung (in KBE/ml),[9]; 4 h after inoculation,<100 KBE/ml
same,Ergebnis der Reisolierung (in KBE/ml),[9]; 6 h after inoculation,<100 KBE/ml
same,Ergebnis der Reisolierung (in KBE/ml),[9]; 8 h after inoculation,<100 KBE/ml
same,Ergebnis der Reisolierung (in KBE/ml),[9]; 24 h after inoculation,<100 KBE/ml
same,Ergebnis der Reisolierung (in KBE/ml),[9]; 32 h after inoculation,<100 KBE/ml
same,Ergebnis der Reisolierung (in KBE/ml),[9]; 48 h after inoculation,<100 KBE/ml
same,Ergebnis der Reisolierung (in KBE/ml),[9]; 72 h after inoculation,<100 KBE/ml
same,Ergebnis der Reisolierung (in KBE/ml),[10]; 2 h after inoculation,<100 KBE/ml
same,Ergebnis der Reisolierung (in KBE/ml),[10]; 4 h after inoculation,<100 KBE/ml
same,Ergebnis der Reisolierung (in KBE/ml),[10]; 6 h after inoculation,<100 KBE/ml
same,Ergebnis der Reisolierung (in KBE/ml),[10]; 8 h after inoculation,<100 KBE/ml
same,Ergebnis der Reisolierung (in KBE/ml),[10]; 24 h after inoculation,<100 KBE/ml
same,Ergebnis der Reisolierung (in KBE/ml),[10]; 32 h after inoculation,<100 KBE/ml
same,Ergebnis der Reisolierung (in KBE/ml),[10]; 48 h after inoculation,<100 KBE/ml
same,Ergebnis der Reisolierung (in KBE/ml),[10]; 72 h after inoculation,<100 KBE/ml
same,Ergebnis der Reisolierung (in KBE/ml),[11]; 2 h after inoculation,<100 KBE/ml
same,Ergebnis der Reisolierung (in KBE/ml),[11]; 4 h after inoculation,<100 KBE/ml
same,Ergebnis der Reisolierung (in KBE/ml),[11]; 6 h after inoculation,<100 KBE/ml
same,Ergebnis der Reisolierung (in KBE/ml),[11]; 8 h after inoculation,<100 KBE/ml
same,Ergebnis der Reisolierung (in KBE/ml),[11]; 24 h after inoculation,<100 KBE/ml
same,Ergebnis der Reisolierung (in KBE/ml),[11]; 32 h after inoculation,<100 KBE/ml
same,Ergebnis der Reisolierung (in KBE/ml),[11]; 48 h after inoculation,<100 KBE/ml
same,Ergebnis der Reisolierung (in KBE/ml),[11]; 72 h after inoculation,<100 KBE/ml
